A short description of data set [1]: Phase I microsomal stability, human liver microsomes. The data set is classed as in vitro ADME. On the procedure:
(§1) The metabolic stability of ART631 was assessed in human and mouse plasma and liver microsomes (LM). For phase I microsomal stability assays, analogs (10 µM in <1% acetonitrile) were incubated in PBS containing liver microsomes, with or without cofactors ([22]). Microsomal controls (without cofactors) were used to determine non-enzymatic degradation. All experiments were incubated at 37°C for 1h and performed in duplicate. Reactions were stopped with acetonitrile and analyzed as described below.
(§2) ART631 was extracted from 25 µL plasma or microsomal solutions with 100 µL acetonitrile containing artemisinin (i.e. the natural product) as internal standard. […] Mobile phase A was ammonium acetate (2mM) containing 0.1% formic acid, and mobile phase B was acetonitrile containing 0.1% formic acid. The gradient started with mobile phase B and was held at 40% for 0.5 minutes with a flow rate of 0.4 mL/min, then increased to 100% over 1.5 minutes and held for 2.0 minutes, and finally returned back to 40% mobile phase B and allowed to equilibrate for 2.0 minutes. An AB Sciex 5500 triple quadrupole mass spectrometer operated in positive electrospray ionization mode was used for the detection of ART631. For stability studies, the ratio of ART631 to the internal standard, artemisinin, was assessed. Calibration curves for ART631 were computed using the ratio of the peak area to that of the internal standard by using a quadratic equation with a 1/x^2 weighting function over the range of 8-1585 nM with dilutions of up to 1:10 (v/v).

A further data set has as its system MOLM14 AML xenografts. Put plainly: luc-labeled MOLM14 AML cell line xenograft. The data set is classed as in vivo, NRG mice. Particulars: 15 mg/kg/d PO, 5 days on, 9 days off, 5 cycles. An excerpt: Immunodeficient NOD-Rag1^nullIL2rg^null (NRG) mice were purchased from Jackson Laboratory (Bar Harbor, ME), bred and housed at the University of Maryland Baltimore. Similar to our previous publication ([20]). mice were transplanted IV with luc-labeled human AML cell lines or cryopreserved AML patient cells on day -10, and baseline total body luminescence was quantified on day 0 by Xenogen bioluminescence imaging (Xenogen IVIS Spectrum; PerkinElmer, Waltham, MA). Mice were allocated to treatment groups so that each group had similar average day 0 luminescence, then groups were administered drugs per oral (PO; gavage). Luminescence of each mouse was assessed over time and compared with that mouse’s day 0 luminescence (fold-change AML burden). Clinical behavior, appearance, weight, and survival were also monitored.
Using our previously determined 5-day MTD SAV drug schedule (i.e. 5-day treatment cycles consisting of 15 mg/kg/d ART631 combined with 150 mg/kg/d VEN and 30 mg/kg/d SOR, followed by 9 days off drug; schematic in Figure 7A ), we assessed treatment of established human luc-labeled MV4;11 ( Figures 7B–D ) and MOLM14 AML ( Figures 8A–C ) cell line xenografts with VEN plus SOR plus ART631 in NRG mice ( Figures 7B , 8A ). […]

In the next data set the test system is ML2. In words: alamarBlue growth inhibition, ML2. The note with it: Homo sapiens, ML-2, ML2, 48h, mean of 2 independent assays ± SD. The data set is classed as cell-based. On the procedure: (§3) Cytotoxicity was assessed using alamarBlue assays (Life Technologies, Grand Island, NY) following manufacturer’s guidelines. Cell death was verified by Annexin V/7-aminoactinomycin D (7AAD) staining (BioLegend, San Diego, CA) per manufacturer’s guidelines.

Another data set relates to KG1a. Put plainly: alamarBlue growth inhibition, KG1a. The data set is classed as cell-based. Particulars: Homo sapiens, KG-1a, 48h, mean of 2 independent assays ± SD. On the procedure:
as §3

Another data set deals with U937. In words: alamarBlue growth inhibition, U937. The data set is classed as cell-based. The note with it: Homo sapiens, U-937, U937, 48h, mean of 2 independent assays ± SD. On the procedure: as §3
The next data set can be described thus: Stability in plasma. The data set is classed as in vitro ADME, human and mouse. Particulars: species not given. On the procedure: as §1
We compared the in vitro stability of ART576 and ART631 ( Table 3 ). ART576 was stable in plasma (<10% degradation), but unstable with degradation of >70% in human liver microsomes with co-factors and >90% in mouse liver microsomes with co-factors ( Table 3 ).

Data set [2] is described as follows: Phase I microsomal stability, mouse liver microsomes. The data set is classed as in vitro ADME. On the procedure: as §1, §2
[3] abbreviates: 10 µM, 37°C, 1h, with cofactors.
[4] abbreviates: 10 µM, 37°C, 1h, without cofactors.
Where [5] appears, read: NADPH-dependent phase I metabolism.

Some results are limits rather than exact numbers.

For the molecule `C=CCO/N=C(/C[C@H]1O[C@@H]2O[C@@]3(C)CC[C@H]4[C@H](C)CC[C@@H]([C@H]1C)[C@@]24OO3)[C@H]1O[C@@H]2O[C@@]3(C)CC[C@H]4[C@H](C)CC[C@@H]([C@H]1C)[C@@]24OO3` [ART631], the “percentage remaining, Phase I Metabolism HLM NADPH(+)” value in data set [1] (setting [3]) is listed as 60%. Moreover, in data set [1] (setting [4]), the “percentage remaining, Phase I Metabolism HLM NADPH(-)” value was found to be 86%. In addition, in data set [1] (setting [5]), the “degradation in human liver microsomes with co-factors” value is recorded as ~ 30%. For the same molecule, the “antileukemic activity of monotherapy” value with MOLM14 AML xenografts is “no activity”. Also, the figures for the IC50 with ML2, with KG1a and in the data set on U937 were 0.034 ± 0.004 µM, 0.029 ± 0.002 µM and 0.02 ± 0.005 µM, respectively. In “Stability in plasma”, this molecule yielded a degradation in plasma of more than 40%. For the same molecule, the “percentage remaining, Phase I Metabolism MLM NADPH(+)” value in data set [2] (setting [3]) came out at 35%. The “percentage remaining, Phase I Metabolism MLM NADPH(-)” value in data set [2] (setting [4]) is 60%. Also, in data set [2] (setting [5]), the “degradation in mouse liver microsomes with co-factors” value is recorded as ~ 40%.

The record behind these values is paper PMC8811960, “A Novel 2-Carbon-Linked Dimeric Artemisinin With Potent Antileukemic Activity and Favorable Pharmacology” (Frontiers in Oncology, 2022).
